Measurements published in publication PMC12131194, “Rational design, synthesis, and evaluation of novel polypharmacological compounds targeting NaV1.5, KV1.5, and K2P channels for atrial fibrillation” (The Journal of Biological Chemistry, 2025).

Molecular target: T1, human NaV1.5 (Homo sapiens, UniProt Q14524)
T1 construct: host or cells: HEK-293 (transient transfection)
Assay: Whole-cell patch-clamp in transfected HEK-293 cells, NaV1.5
Assay type: cell-based
Details: 10 μM and 100 μM, −10 mV
Procedure: The human embryonic kidney 293 (HEK-293) cell line was obtained from the American Type Culture Collection. HEK-293 cells were cultured in Dulbecco’s modified Eagle’s medium (DMEM-F12, Invitrogen Life Technologies) supplemented with 5% (v/v) fetal bovine serum (FBS) (Thermo Fisher Scientific) and 1% antibiotics (penicillin 100 U/ml y streptomycin 100 μg/ml) (Gibco, Thermo Fisher). The cells were maintained at 37 °C and 5% CO2 atmosphere.
For the electrophysiological experiments, HEK-293 cells were transiently transfected with cDNA encoding human NaV1.5 (plasmid 145,374, Addgene), KV1.5 (NM_002234), and TASK-1 (NM_002246). […] The cells were incubated for 4 h in transfection medium OptiMEM (Invitrogen). […]
For Nav1.5, the effect of 6f at both concentrations was tested using a repetitive single test voltage pulse at −10 mV (during 20 ms) from a holding potential of −80 mV, with intervals of 5s between pulses. For Kv1.5 and TASK-1, ramp voltage protocols were applied with pulse intervals of 20 s, and the currents were analyzed at +40 mV.
After recording currents with stable amplitudes, the cells were treated with 6f and applied from the bath solution. Currents were continuously recorded during repetitive pulses until a stable effect was achieved. […] The inhibition percentage was calculated as follows: Inℎibition (%) = 100 ∗ (Icontrol − Idrug)/Icontrol.

T1 sequence (Q14524 whole entry): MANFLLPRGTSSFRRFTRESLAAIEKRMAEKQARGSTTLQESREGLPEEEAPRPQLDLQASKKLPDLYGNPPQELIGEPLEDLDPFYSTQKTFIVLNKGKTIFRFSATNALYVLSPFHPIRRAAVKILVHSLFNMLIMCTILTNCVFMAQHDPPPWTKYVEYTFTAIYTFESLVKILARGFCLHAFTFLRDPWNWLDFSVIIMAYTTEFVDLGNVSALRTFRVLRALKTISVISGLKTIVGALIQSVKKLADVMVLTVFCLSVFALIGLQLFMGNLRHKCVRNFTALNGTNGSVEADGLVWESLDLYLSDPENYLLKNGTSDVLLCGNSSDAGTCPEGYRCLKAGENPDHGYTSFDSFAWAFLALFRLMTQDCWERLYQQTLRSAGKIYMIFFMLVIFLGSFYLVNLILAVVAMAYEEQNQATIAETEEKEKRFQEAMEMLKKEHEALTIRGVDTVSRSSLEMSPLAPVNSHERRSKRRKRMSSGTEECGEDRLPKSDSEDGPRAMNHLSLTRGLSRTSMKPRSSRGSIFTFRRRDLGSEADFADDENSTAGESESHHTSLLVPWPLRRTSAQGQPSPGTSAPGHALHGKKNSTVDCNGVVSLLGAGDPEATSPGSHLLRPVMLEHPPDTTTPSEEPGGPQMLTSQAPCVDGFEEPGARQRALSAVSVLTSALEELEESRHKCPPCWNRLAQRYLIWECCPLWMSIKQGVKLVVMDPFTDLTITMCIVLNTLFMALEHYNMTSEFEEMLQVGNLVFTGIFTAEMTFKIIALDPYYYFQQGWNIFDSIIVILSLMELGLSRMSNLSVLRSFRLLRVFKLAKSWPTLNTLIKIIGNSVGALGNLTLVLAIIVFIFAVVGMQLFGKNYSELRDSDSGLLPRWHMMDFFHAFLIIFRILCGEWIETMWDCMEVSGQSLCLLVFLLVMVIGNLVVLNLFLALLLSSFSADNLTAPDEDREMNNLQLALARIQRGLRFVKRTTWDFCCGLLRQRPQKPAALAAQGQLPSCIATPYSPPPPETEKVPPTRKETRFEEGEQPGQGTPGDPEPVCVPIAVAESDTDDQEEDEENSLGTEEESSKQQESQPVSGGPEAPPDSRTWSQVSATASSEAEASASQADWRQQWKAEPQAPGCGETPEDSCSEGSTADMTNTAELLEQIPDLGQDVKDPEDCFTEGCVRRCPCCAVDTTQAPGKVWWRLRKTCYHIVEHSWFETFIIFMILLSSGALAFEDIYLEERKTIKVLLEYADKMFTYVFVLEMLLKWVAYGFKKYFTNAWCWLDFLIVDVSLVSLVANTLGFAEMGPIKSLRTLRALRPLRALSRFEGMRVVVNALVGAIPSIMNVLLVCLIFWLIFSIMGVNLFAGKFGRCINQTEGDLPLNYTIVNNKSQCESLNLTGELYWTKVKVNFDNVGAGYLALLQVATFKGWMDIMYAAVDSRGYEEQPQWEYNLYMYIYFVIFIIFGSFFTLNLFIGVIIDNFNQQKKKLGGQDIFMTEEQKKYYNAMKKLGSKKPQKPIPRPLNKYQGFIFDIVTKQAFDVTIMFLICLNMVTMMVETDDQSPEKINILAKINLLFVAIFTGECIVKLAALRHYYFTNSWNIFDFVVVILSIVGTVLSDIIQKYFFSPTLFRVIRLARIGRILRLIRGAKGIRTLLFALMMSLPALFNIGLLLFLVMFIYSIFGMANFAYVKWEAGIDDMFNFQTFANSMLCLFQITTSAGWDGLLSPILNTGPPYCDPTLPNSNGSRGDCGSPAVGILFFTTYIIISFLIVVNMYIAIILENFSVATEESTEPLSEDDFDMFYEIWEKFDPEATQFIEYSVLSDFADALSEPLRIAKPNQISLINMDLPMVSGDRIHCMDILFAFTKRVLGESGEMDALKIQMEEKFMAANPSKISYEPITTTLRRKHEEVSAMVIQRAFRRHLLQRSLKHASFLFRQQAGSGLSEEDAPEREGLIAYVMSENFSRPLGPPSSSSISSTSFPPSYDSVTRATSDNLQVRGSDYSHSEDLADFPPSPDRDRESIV

CCCCN(CCCC)CC(=O)Nc1ccc(OC)cc1OC [Compound 6f, 2-(dibutylamine)-N-(2,4-dimethoxiphenyl)acetamide]
Blockade of NaV1.5 in HEK cells: significant blockade by 6f only at 100 μM
